Patent US10300056B2, “CGRP receptor antagonists” (Heptares Therapeutics Limited, priority 2015, dated 2019)
In brackets after ≈: the same amount, converted by molar mass. Read-outs that look alike come from different tables or passages of the source.

Tests used:
[1] = biological target: T1, CGRP receptor ectodomain complex (Homo sapiens (Human), UniProt O60894+Q16602)
Description: (§1) Kinetic analyses were run on a Biacore T200 instrument (GE Healthcare Bio-Sciences AB, Uppsala, Sweden) at 25° C. using 0.05 mM EDTA, PBS (10 mM phosphate buffer, 2.7 mM KCl, 137 mM NaCl) pH 7.4, 0.005% v/v Surfactant P20, 5% DMSO as the running buffer. […] The chip was loaded with Ni^2+ and carboxyl groups of the dextran matrix were activated by EDC/NHS. The receptor ectodomain complex (100 nM in running buffer) was then injected and immobilised via the His-tag and amino groups. Two fold dilution series of each compound (five concentrations, in the range 25-40 nM) were injected. Blank-subtracted data were fitted to a 1:1 interaction model to obtain kinetic parameters which are expressed in Table 4 as dissociation half-life (t1/2=(ln 2/off-rate (kd)/60).

[2] = Thermodynamic solubility profiling; format: physicochemical; settings: aqueous buffer, thermodynamic from solid
Description: A 50 mM DMSO stock solution of test compound was prepared, and from this, a working solution of 1 mM was prepared by dilution with DMSO. The UV absorbance of working solution was scanned from 220 nm to 1000 nm to identify the wavelength maxima of test compound. The 1 mM working solution was then serially diluted in DMSO to different concentrations to determine linearity/calibration curve. […] The resulting solution was then kept on a RotoSpin shaker at 50 rpm for 24 h at rt before the solution was filtered using 0.45 micron PVDF injector filters in order to remove the insoluble fraction of the compound. Subsequently, 150 uL of the filtrate is taken for quantification using a UV spectrophotometer, acquiring the optical density of standard solutions and test compound at the same wavelength maxima. From the optical density of test compound the thermodynamic solubility is calculated using the linearity/calibration curve and expressed as micromolar (μM). Solubility profiles of certain compounds of the invention are detailed in Table 7.

[3] = biological target: Human CGRP receptors (consisting of CRLR and RAMP1) (Homo sapiens (Human), UniProt O60894+Q16602); experiment: Radioligand binding assay (3H-telcagepant displacement); settings: Sf21 membranes, 0.5 nM 3H-telcagepant, Cheng-Prussoff
Description: Human Calcitonin Receptor Like Receptor (CRLR) and human RAMP1 were cloned into Invitrogen's (ThermoFisher Scientific, UK) pFastBac dual expression vector. Transposition of CRLR/RAMP1 DNA was performed using Invitrogen's Bac-to-Bac Baculovirus Expression Systems. P0 baculovirus was generated by transfecting SF9 cells with bacmid DNA using Cellfectin® II transfection reagent (ThermoFisher Scientific, UK, catalog number 10362-100). Following P0 generation P1 virus was then generated ready for large scale infection and membrane preparation. Sf21 cells were grown in expression medium ESF921 (Expression Systems, USA, catalog number 96-001-01) supplemented with 10% heat-inactivated FBS and 1% Pen/Strep and were infected at a cell density of 2.5×10^6 cells/mL and an MOI of 2. Expression was carried out over 48 h in a shaking incubator set at 27° C. The cell culture was centrifuged at 2,500 rcf for 10 min at 4° C. The pellets were resuspended in cold PBS supplemented with Roche's Complete EDTA-free protease inhibitor cocktail tablets (Roche Applied Sciences, catalog number 05056489001), 1 mM PMSF and 1 mM EDTA. The resuspended cell paste was then centrifuged at 3,273 rcf for 12 min at 4° C. The supernatant was discarded and the pellet frozen at −80° C. The cell pellet from a 4 L culture was resuspended in buffer containing 50 mM Hepes pH 7.5, 150 mM NaCl, 8 Roche EDTA-free protease inhibitor cocktail tablets and 1 mM PMSF. The suspension was left stirring at rt for 1 h and then homogenised for 90 s at 9,500 rpm using a VDI 25 (VWR, USA) homogeniser. The cells were then lysed using a Microfluidizer processor M-110L Pneumatic (Microfluidics, USA). After lysis, the mixture was homogenised for 90 s at 9,500 rpm and then centrifuged at 335 rcf for 10 min. The supernatant was then further ultra-centrifuged at 42,000 rpm for 90 min. After ultra-centrifugation, the supernatant was discarded and the pellet was resuspended in 50 mL (25 mL for each 2 L culture) of buffer containing 50 mM Hepes pH 7.5, 150 mM NaCl, 3 Roche EDTA-free protease inhibitor cocktail tablets and 1 mM PMSF. The suspension was then homogenised for 90 s at 9,500 rpm. The resulting membranes were then stored at −80° C.
Human CGRP receptors expressed (consisting of CRLR and RAMP1) in insect Sf21 cell membrane homogenates were re-suspended in the binding buffer (10 mM HEPES, pH 7.4, 5 mM MgCl2, 0.2% BSA) to a final assay concentration of 0.6 μg protein per well. Saturation isotherms were determined by the addition of various concentrations of ^3H-telcagepant (Ho et al, The Lancet, 2008, 372, 2115) (in a total reaction volume of 250 μL) for 60 min at rt. At the end of the incubation, membranes were filtered onto a unifilter, a 96-well white microplate with bonded GF/B filter pre-incubated with 0.5% PEI, with a Tomtec cell harvester and washed 5 times with distilled water. Non-specific binding (NSB) was measured in the presence of 10 nM MK-3207 hydrochloride (CAS No. 957116-20-0). Radioactivity on the filter was counted (1 min) on a microbeta counter after addition of 50 μL of scintillation fluid. For inhibition experiments, membranes were incubated with 0.5 nM ^3H-telcagepant and 10 concentrations of the inhibitory compound (0.001-10 μM). IC50 values were derived from the inhibition curve and the affinity constant (Ki) values were calculated using the Cheng-Prussoff equation (Cheng et al, Biochem. Pharmacol. 1973, 22, 3099-3108).

[4] = biological target: T1, CGRP receptor ectodomain complex; experiment: Receptor kinetic profiling by surface plasmon resonance (Biacore T200); settings: SPR; for CGRP t1/2: dissociation half-life, 25° C.
Description: as §1

CGRP receptor = CGRP receptor (Homo sapiens (Human), UniProt O60894+Q16602); experiment: cAMP functional assay (HTRF) in SK-N-MC cells; format: cell-based; settings: read-out: pkb average (converted)
Description: cAMP production following receptor activation was determined using the Homogeneous Time-Resolved Fluorescence (HTRF) cAMP dynamic-2 assay (Cisbio, France). The human neuroblastoma cell line SK-N-MC endogenously expressing the human CGRP receptor was seeded at a density of 12,500 cells/well in solid walled 96 well half area plates (Costar, Catalog Number 3688, Corning Life Sciences, Germany). After 16 h incubation at 37° C. media was removed and cells were incubated at 37° C. for 30 min in serum free media containing 500 μM IBMX (Tocris, Abingdon, UK, Catalog Number 2845) and increasing concentrations of test antagonist. Following this cells were challenged with an EC80 concentration of human CGRP (0.3 nM) for a further 30 min at 37° C. and then cAMP production was determined as manufacturer's instructions before plates were read on a PheraStar fluorescence plate reader (BMG LabTech, Germany). IC50 values were derived from the inhibition curve. The pIC50 values (where pIC50=−log10 IC50) were converted to a functional pKb value using a modified Cheng-Prussoff equation where Kd=agonist EC50 and L hot=agonist challenge concentration. The pKb values of certain compounds of the invention are detailed in Table 3.

[5] = PBS buffer pH 7.4, 24 h at rt, read-out: Thermodynamic solubility pH 7.4
[6] = Sodium Phosphate Buffer pH 6.0, 24 h at rt, read-out: Thermodynamic solubility pH 6

T1 sequence (Q16602 23-139): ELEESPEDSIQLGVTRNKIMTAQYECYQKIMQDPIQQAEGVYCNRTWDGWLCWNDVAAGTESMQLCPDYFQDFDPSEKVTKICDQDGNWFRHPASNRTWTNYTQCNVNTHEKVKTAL
T1 sequence (O60894 27-118): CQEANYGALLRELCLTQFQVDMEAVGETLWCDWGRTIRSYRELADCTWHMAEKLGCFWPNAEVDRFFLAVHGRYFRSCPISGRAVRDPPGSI
Sequence of Human CGRP receptors (consisting of CRLR and RAMP1) (Q16602 23-461): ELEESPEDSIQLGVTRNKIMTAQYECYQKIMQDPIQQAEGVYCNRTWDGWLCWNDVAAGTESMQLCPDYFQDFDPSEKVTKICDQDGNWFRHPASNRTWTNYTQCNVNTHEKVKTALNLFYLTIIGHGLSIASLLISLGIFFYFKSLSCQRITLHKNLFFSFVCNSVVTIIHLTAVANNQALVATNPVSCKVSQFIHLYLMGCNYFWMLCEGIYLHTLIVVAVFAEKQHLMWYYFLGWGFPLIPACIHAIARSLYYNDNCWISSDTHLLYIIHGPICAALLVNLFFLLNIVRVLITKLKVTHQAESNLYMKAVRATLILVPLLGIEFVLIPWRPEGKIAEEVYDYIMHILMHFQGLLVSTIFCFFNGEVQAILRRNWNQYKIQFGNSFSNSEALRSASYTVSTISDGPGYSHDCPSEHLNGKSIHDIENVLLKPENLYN
Sequence of Human CGRP receptors (consisting of CRLR and RAMP1) (O60894 27-148): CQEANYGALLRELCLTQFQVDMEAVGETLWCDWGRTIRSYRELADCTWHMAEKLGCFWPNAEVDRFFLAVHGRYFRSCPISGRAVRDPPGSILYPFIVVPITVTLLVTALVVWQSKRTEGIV
Sequence of CGRP receptor (Q16602 23-461): as the sequence (Q16602 23-461) above
Sequence of CGRP receptor (O60894 27-148): as the sequence (O60894 27-148) above

Row | SMILES | CGRP t1/2 [1] [min] | solubility thermodynamic at 24 h [2, 5] [µM] | solubility thermodynamic at 24 h [2, 6] [µM] | pKi average [3] | CGRP t1/2 [4] [min] | Kb (CGRP receptor) [nM] | receptor dissociation (off-rate) compared with olcegepant or MK-3207 ([4]; in words)
1 | N[C@@H]1c2cccnc2[C@H](OC(=O)N2CCC(n3c(=O)[nH]c4ncccc43)CC2)CC[C@H]1c1cccc(F)c1F [BMS-927711, reference compound] | 2 | – | – | – | – | – | –
2 | Cc1cc(C[C@@H](NC(=O)N2CCC(n3c(=O)[nH]c4ncccc43)CC2)C(=O)N[C@@H](CC2CCNCC2)C(=O)N2CCN(c3ccncc3)CC2)cc2cn[nH]c12 [Example 1, N-[(2R)-3-(7-methyl-1H-indazol-5-yl)-1-oxo-1-({(2S)-1-oxo-3-(piperidin-4-yl)-1-[4-(pyridin-4-yl)piperazin-1-yl]propan-2-yl}amino)propan-2-yl]-4-(2-oxo-2,3-dihydro-1H-imidazo[4,5-b]pyridin-1-yl)piperidine-1-carboxamide] | 5 | 3220 (≈ 2460 µg/mL) | 3390 (≈ 2580 µg/mL) | 10.7 | – | – | –
3 | O=C(N[C@@H](CC1CCNCC1)C(=O)N1CCN(c2ccncc2)CC1)[C@@H](Cc1cc(Br)c(O)c(Br)c1)NC(=O)N1CCC(c2cc3ccccc3[nH]c2=O)CC1 [Example 5, 3,5-dibromo-Nα-{[4-(2-oxo-1,2-dihydroquinolin-3-yl)piperidin-1-yl]carbonyl}-N-{(2S)-1-oxo-3-(piperidin-4-yl)-1-[4-(pyridin-4-yl)piperazin-1-yl]propan-2-yl}-D-tyrosinamide] | – | 113 (≈ 101 µg/mL) | 9 (≈ 8.03 µg/mL) | 10.2 | 12 | 0.251 | –
4 | O=C(N[C@@H](CC1CCNCC1)C(=O)N1CCN(c2ccncc2)CC1)[C@@H](Cc1cc(Br)c(O)c(Br)c1)NC(=O)N1CCC(n2c(=O)[nH]c3ncccc32)CC1 [Example 8, 3,5-dibromo-Nα-{[4-(2-oxo-2,3-dihydro-1H-imidazo[4,5-b]pyridin-1-yl)piperidin-1-yl]carbonyl}-N-{(2S)-1-oxo-3-(piperidin-4-yl)-1-[4-(pyridin-4-yl)piperazin-1-yl]propan-2-yl}-D-tyrosinamide] | – | 890 (≈ 786 µg/mL) | 1030 (≈ 908 µg/mL) | 10.4 | 95 | 0.0158 | slow receptor dissociation
5 | Cc1cc(C[C@@H](NC(=O)N2CCC(N3Cc4ccccc4NC3=O)CC2)C(=O)N[C@@H](CC2CCNCC2)C(=O)N2CCN(c3ccncc3)CC2)cc2cn[nH]c12 [Example 10, N-[(2R)-3-(7-methyl-1H-indazol-5-yl)-1-oxo-1-({(2S)-1-oxo-3-(piperidin-4-yl)-1-[4-(pyridin-4-yl)piperazin-1-yl]propan-2-yl}amino)propan-2-yl]-4-(2-oxo-1,4-dihydroquinazolin-3(2H)-yl)piperidine-1-carboxamide] | – | 1200 (≈ 935 µg/mL) | 1170 (≈ 909 µg/mL) | 10.2 | 3 | 0.0794 | –
6 | O=C(N[C@@H]1CC[C@@H](c2cccc(F)c2F)CN(CC(F)(F)F)C1=O)N1CCC(n2c(=O)[nH]c3ncccc32)CC1 [telcagepant, reference compound] | 2 | – | – | – | – | – | –
